Target: human Somatostatin 4 receptor (hSSTR4) (Homo sapiens (Human), UniProt P31391)
Sequence (P31391 whole entry): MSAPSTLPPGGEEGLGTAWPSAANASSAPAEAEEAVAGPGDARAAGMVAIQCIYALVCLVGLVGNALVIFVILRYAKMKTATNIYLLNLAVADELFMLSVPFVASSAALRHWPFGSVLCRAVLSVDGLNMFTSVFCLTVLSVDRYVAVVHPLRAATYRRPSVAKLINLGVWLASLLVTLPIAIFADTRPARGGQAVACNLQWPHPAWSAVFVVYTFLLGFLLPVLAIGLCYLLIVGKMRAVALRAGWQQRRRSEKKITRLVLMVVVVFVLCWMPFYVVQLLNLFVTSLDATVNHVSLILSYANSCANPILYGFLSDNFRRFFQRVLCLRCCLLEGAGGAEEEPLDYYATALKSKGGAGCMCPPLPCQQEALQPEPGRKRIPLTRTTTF
Experiment: cAMP assay with human somatostatin 4 receptor (inhibition of forskolin-stimulated cAMP, hSSTR4 expressing H4 cells)
Type: cell-based
Settings: read-out: SSTR4 agonism EC50
For `CC(C)(NC(=O)C1CNCCOC1)c1noc2c(Cl)cccc12` (racemic) [Example 72], the EC50 was 17.3 nM. `Cn1nc(C(C)(C)NC(=O)C2CNCCOC2)c2cccc(F)c21` (racemic) [Example 76] gave an EC50 of 10 nM. Molecule `CC(C)(NC(=O)C1CNCCOC1)c1noc2c(Cl)cccc12` (single isomer, unassigned) [Example 73] has an EC50 of 8.4 nM. In the case of `Cc1cccn2c(C3(NC(=O)C4CNCCOC4)CC3)ncc12` (stereo not shown) [Example 5], the EC50 is reported as 20.4 nM. In the case of `CC(C)(NC(=O)[C@H]1CNCCO1)c1ccnc2ccccc12` [Example 8], the EC50 is reported as 258 nM. `Cc1nc(C(C)(C)NC(=O)[C@@H]2CNCCO2)n2cccc(F)c12` [Example 98] showed an EC50 of 85.3 nM. Work on `COc1cccn2c(C(C)(C)NC(=O)[C@@H]3CNCCO3)ncc12` [Example 99] yielded an EC50 of 43.4 nM.

Test system: not listed separately
Experiment: in vitro
Settings: human, microsomes, pH 7.6
In the case of `CC(C)(NC(=O)C1CNCCOC1)c1noc2c(Cl)cccc12` (single isomer, unassigned) [Example 73], the half-life at 1 μM is reported as over 130 min.

Test system: not listed separately
Experiment: Metabolic stability in pooled human liver microsomes (half-life)
Settings: 37° C., 1 μM test compound
For `Cn1nc(C(C)(C)NC(=O)[C@@H]2CNCCO2)c2cccc(Cl)c21` [Example 79], the “Half-life t1/2” value was 100 min. With `Cc1cccc2c(C(C)(C)NC(=O)[C@@H]3CNCCO3)nn(C)c12` [Example 83] the “Half-life t1/2” value was over 130 min.

Source: US10577336B2, “Morpholine and 1,4-oxazepane amides as somatostatin receptor subtype 4 (SSTR4) agonists” (Boehringer Ingelheim International GmbH, priority 2014, dated 2020)
